target: T1, rat NaPi-2b (Rattus norvegicus, UniProt Q9JJ09); assay: Sodium-dependent phosphate uptake of Xenopus oocytes which expressed NaPi-2b (32P); format: cell-based; details: Xenopus oocytes expressing rat NaPi-2b, 32P radioactive phosphorus; read-out: IC50 (phosphate uptake inhibitory activity)
T1 construct: expressed in transfected cells; host or cells: Xenopus oocytes injected with cRNA
T1 sequence (Q9JJ09 1-695): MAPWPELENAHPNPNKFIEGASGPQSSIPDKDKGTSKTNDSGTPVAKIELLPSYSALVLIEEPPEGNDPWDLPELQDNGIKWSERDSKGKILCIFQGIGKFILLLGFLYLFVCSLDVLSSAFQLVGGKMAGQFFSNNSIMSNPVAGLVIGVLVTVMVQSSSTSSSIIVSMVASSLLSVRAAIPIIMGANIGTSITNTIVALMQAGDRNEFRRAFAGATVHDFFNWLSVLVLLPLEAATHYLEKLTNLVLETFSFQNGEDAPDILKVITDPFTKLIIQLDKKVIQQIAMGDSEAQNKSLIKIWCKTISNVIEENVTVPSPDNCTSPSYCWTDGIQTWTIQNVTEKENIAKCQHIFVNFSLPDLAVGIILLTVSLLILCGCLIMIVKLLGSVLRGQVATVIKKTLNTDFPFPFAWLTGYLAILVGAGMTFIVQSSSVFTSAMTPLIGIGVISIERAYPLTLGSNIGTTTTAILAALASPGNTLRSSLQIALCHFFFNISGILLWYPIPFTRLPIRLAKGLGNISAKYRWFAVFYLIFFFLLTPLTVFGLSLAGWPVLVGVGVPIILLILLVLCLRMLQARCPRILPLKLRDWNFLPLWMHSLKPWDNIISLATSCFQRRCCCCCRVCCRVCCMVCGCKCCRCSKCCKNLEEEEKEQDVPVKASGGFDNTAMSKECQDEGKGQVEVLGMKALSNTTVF
Summary of the method: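 Oocytes injected with rat NaPi-2b cRNA, cultured 2 d, then 32P uptake measured with compound. Values: % inhibition at 300 and 100 μM, both from one inhibition curve.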

`Cc1csc(NC(=O)c2cccc(CSCCCO)c2)c1C(=O)N/N=C/c1ccc(Cl)c(C(F)(F)F)c1` [Compound 561, N-[3-(4-Chloro-3-trifluoromethyl-benzylidene-hydrazinocarbonyl)-4-methyl-thiophen-2-yl]-3-(3-hydroxy-propylsulfanylmethyl)-benzamide] and `CCN(CC)CCNCc1cccc(C(=O)Nc2scc(C)c2C(=O)N/N=C/c2ccc(Cl)c(C(F)(F)F)c2)c1` [Compound 585, N-[3-(4-Chloro-3-trifluoromethyl-benzylidene-hydrazinocarbonyl)-4-methyl-thiophen-2-yl]-3-[(2-diethylamino-ethylamino)-methyl]-benzamide] cannot be ordered by IC50: 0.31 µM for the first, under 3 µM for the second.

`COc1ccc(/C=N/NC(=O)c2c(C)csc2NC(=O)c2cccc(CSCCCO)c2)cc1` [Compound 562, 3-(3-Hydroxy-propylsulfanylmethyl)-N-[3-(4-methoxy-benzylidene-hydrazinocarbonyl)-4-methyl-thiophen-2-yl]-benzamide] and `CCN(CC)CCNCc1cccc(C(=O)Nc2scc(C)c2C(=O)N/N=C/c2ccc(OC)cc2)c1` [Compound 586, 3-[(2-Diethylamino-ethylamino)-methyl]-N-[3-(4-methoxy-benzylidene-hydrazinocarbonyl)-4-methyl-thiophen-2-yl]-benzamide] cannot be ordered by IC50: under 1 µM for the first, under 3 µM for the second.

Going from `CCN(CC)CCN(C)Cc1cccc(C(=O)Nc2scc(C)c2C(=O)N/N=C/c2ccc(C)c(C)c2)c1` [Compound 563, 3-{[(2-Diethylamino-ethyl)-methyl-amino]-methyl}-N-[3-(3,4-dimethyl-benzylidene-hydrazinocarbonyl)-4-methyl-thiophen-2-yl]-benzamide] to `CCN(CC)CCN(C)Cc1cccc(C(=O)Nc2scc(C)c2C(=O)N/N=C/c2ccc(C)cc2)c1` [Compound 564, 3-{[(2-Diethylamino-ethyl)-methyl-amino]-methyl}-N-[4-methyl-3-(4-methyl-benzylidene-hydrazinocarbonyl)-thiophen-2-yl]-benzamide], the IC50 rises from under 1 µM to 11.6 µM. The first is the more potent here.

Going from `CCN(CC)CCN(C)Cc1cccc(C(=O)Nc2scc(C)c2C(=O)N/N=C/c2ccc(F)cc2)c1` [Compound 565, 3-{[(2-Diethylamino-ethyl)-methyl-amino]-methyl}-N-[3-(4-fluoro-benzylidene-hydrazinocarbonyl)-4-methyl-thiophen-2-yl]-benzamide] to `CCN(CC)CCN(C)Cc1cccc(C(=O)Nc2scc(C)c2C(=O)N/N=C/c2ccc(OC)cc2)c1` [Compound 568, 3-{[(2-Diethylamino-ethyl)-methyl-amino]-methyl}-N-[3-(4-methoxy-benzylidene-hydrazinocarbonyl)-4-methyl-thiophen-2-yl]-benzamide], the IC50 falls from 13 µM to 4.32 µM (3-fold).

First: CCN(CC)CCN(C)Cc1cccc(C(=O)Nc2scc(C)c2C(=O)N/N=C/c2cccc(F)c2)c1 [Compound 566, 3-{[(2-Diethylamino-ethyl)-methyl-amino]-methyl}-N-[3-(3-fluoro-benzylidene-hydrazinocarbonyl)-4-methyl-thiophen-2-yl]-benzamide]
Second: CCN(CC)CCNCc1cccc(C(=O)Nc2scc(C)c2C(=O)N/N=C/c2cccc(F)c2)c1 [Compound 584, 3-[(2-Diethylamino-ethylamino)-methyl]-N-[3-(3-fluoro-benzylidene-hydrazinocarbonyl)-4-methyl-thiophen-2-yl]-benzamide]
The IC50 of the first is higher: 14.6 µM for the first, under 3 µM for the second. The second is the more potent here.

`CCN(CC)CCN(C)Cc1cccc(C(=O)Nc2scc(C)c2C(=O)N/N=C/c2ccc(Cl)c(C(F)(F)F)c2)c1` [Compound 567, N-[3-(4-Chloro-3-trifluoromethyl-benzylidene-hydrazinocarbonyl)-4-methyl-thiophen-2-yl]-3-{[(2-diethylamino-ethyl)-methyl-amino]-methyl}-benzamide] and `CCN(CC)CCNCc1cccc(C(=O)Nc2scc(C)c2C(=O)N/N=C/c2ccc(C)c(C)c2)c1` [Compound 581, 3-[(2-Diethylamino-ethylamino)-methyl]-N-[3-(3,4-dimethyl-benzylidene-hydrazinocarbonyl)-4-methyl-thiophen-2-yl]-benzamide] cannot be ordered by IC50: under 1 µM for the first, under 3 µM for the second.

Going from `Cc1ccc(/C=N/NC(=O)c2c(C)csc2NC(=O)c2cccc(CN3CCC(N4CCCCC4)CC3)c2)cc1C` [Compound 569, 3-[1,4′]Bipiperidinyl-1′-ylmethyl-N-[3-(3,4-dimethyl-benzylidene-hydrazinocarbonyl)-4-methyl-thiophen-2-yl]-benzamide] to `Cc1ccc(/C=N/NC(=O)c2c(C)csc2NC(=O)c2cccc(CN3CCC(N4CCCCC4)CC3)c2)cc1` [Compound 570, 3-[1,4′]Bipiperidinyl-1′-ylmethyl-N-[4-methyl-3-(4-methyl-benzylidene-hydrazinocarbonyl)-thiophen-2-yl]-benzamide], the IC50 rises from under 3 µM to 6.04 µM. The first is the more potent here.

`Cc1csc(NC(=O)c2cccc(CN3CCC(N4CCCCC4)CC3)c2)c1C(=O)N/N=C/c1ccc(F)cc1` [Compound 571, 3-[1,4′]Bipiperidinyl-1′-ylmethyl-N-[3-(4-fluoro-benzylidene-hydrazinocarbonyl)-4-methyl-thiophen-2-yl]-benzamide] and `COc1ccc(/C=N/NC(=O)c2c(C)csc2NC(=O)c2cccc(CN3CCC(N4CCCCC4)CC3)c2)cc1` [Compound 574, 3-[1,4′]Bipiperidinyl-1′-ylmethyl-N-[3-(4-methoxy-benzylidene-hydrazinocarbonyl)-4-methyl-thiophen-2-yl]-benzamide] are within 1.5-fold of each other in IC50: 5.27 µM for the first, 6.93 µM for the second.

Compared with `Cc1csc(NC(=O)c2cccc(CN3CCC(N4CCCCC4)CC3)c2)c1C(=O)N/N=C/c1cccc(F)c1` [Compound 572, 3-[1,4′]Bipiperidinyl-1′-ylmethyl-N-[3-(3-fluoro-benzylidene-hydrazinocarbonyl)-4-methyl-thiophen-2-yl]-benzamide], `Cc1csc(NC(=O)c2cccc(CN3CCC(N4CCCCC4)CC3)c2)c1C(=O)N/N=C/c1ccc(Cl)c(C(F)(F)F)c1` [Compound 573, 3-[1,4′]Bipiperidinyl-1′-ylmethyl-N-[3-(4-chloro-3-trifluoromethyl-benzylidene-hydrazinocarbonyl)-4-methyl-thiophen-2-yl]-benzamide] is 2.4-fold lower in IC50: 4.12 µM for the first, 1.75 µM for the second. The second is the more potent here.

`Cc1ccc(/C=N/NC(=O)c2c(C)csc2NC(=O)c2cccc(CN3CCN(CCO)CC3)c2)cc1C` [Compound 575, N-[3-(3,4-Dimethyl-benzylidene-hydrazinocarbonyl)-4-methyl-thiophen-2-yl]-3-[4-(2-hydroxy-ethyl)-piperazin-1-ylmethyl]-benzamide] and `Cc1ccc(/C=N/NC(=O)c2c(C)csc2NC(=O)c2cccc(CN3CCN(CCO)CC3)c2)cc1` [Compound 576, 3-[4-(2-Hydroxy-ethyl)-piperazin-1-ylmethyl]-N-[4-methyl-3-(4-methyl-benzylidene-hydrazinocarbonyl)-thiophen-2-yl]-benzamide] cannot be ordered by IC50: under 3 µM for the first, under 3 µM for the second.

`Cc1csc(NC(=O)c2cccc(CN3CCN(CCO)CC3)c2)c1C(=O)N/N=C/c1ccc(F)cc1` [Compound 577, N-[3-(4-Fluoro-benzylidene-hydrazinocarbonyl)-4-methyl-thiophen-2-yl]-3-[4-(2-hydroxy-ethyl)-piperazin-1-ylmethyl]-benzamide] and `COc1ccc(/C=N/NC(=O)c2c(C)csc2NC(=O)c2cccc(CN3CCN(CCO)CC3)c2)cc1` [Compound 580, 3-[4-(2-Hydroxy-ethyl)-piperazin-1-ylmethyl]-N-[3-(4-methoxy-benzylidene-hydrazinocarbonyl)-4-methyl-thiophen-2-yl]-benzamide] cannot be ordered by IC50: under 3 µM for the first, under 3 µM for the second.

`Cc1csc(NC(=O)c2cccc(CN3CCN(CCO)CC3)c2)c1C(=O)N/N=C/c1cccc(F)c1` [Compound 578, N-[3-(3-Fluoro-benzylidene-hydrazinocarbonyl)-4-methyl-thiophen-2-yl]-3-[4-(2-hydroxy-ethyl)-piperazin-1-ylmethyl]-benzamide] and `Cc1csc(NC(=O)c2cccc(CN3CCN(CCO)CC3)c2)c1C(=O)N/N=C/c1ccc(Cl)c(C(F)(F)F)c1` [Compound 579, N-[3-(4-Chloro-3-trifluoromethyl-benzylidene-hydrazinocarbonyl)-4-methyl-thiophen-2-yl]-3-[4-(2-hydroxy-ethyl)-piperazin-1-ylmethyl]-benzamide] cannot be ordered by IC50: under 3 µM for the first, under 3 µM for the second.

`CCN(CC)CCNCc1cccc(C(=O)Nc2scc(C)c2C(=O)N/N=C/c2ccc(C)cc2)c1` [Compound 582, 3-[(2-Diethylamino-ethylamino)-methyl]-N-[4-methyl-3-(4-methyl-benzylidene-hydrazinocarbonyl)-thiophen-2-yl]-benzamide] and `CCN(CC)CCNCc1cccc(C(=O)Nc2scc(C)c2C(=O)N/N=C/c2ccc(F)cc2)c1` [Compound 583, 3-[(2-Diethylamino-ethylamino)-methyl]-N-[3-(4-fluoro-benzylidene-hydrazinocarbonyl)-4-methyl-thiophen-2-yl]-benzamide] cannot be ordered by IC50: under 3 µM for the first, under 3 µM for the second.

From US8134015B2, “Compound inhibiting in vivo phosphorous transport and medicine containing the same” (Kyowa Hakko Kirin Co., Ltd., priority 2003, dated 2012)
